The values that follow come from patent US10980754B2, “Anti-fungal compounds” (SAINT LOUIS UNIVERSITY, priority 2016, dated 2021).

A short description of data set [1]: Cytotoxicity in hepatoma cells (MTS). As to conditions: human, HepDES19 cells. The protocol:
HepDES19 cells (1.0×10^4 cells per well) were seeded in 96-well plates and incubated in DMEM with 10% fetal bovine serum (FBS) plus 1% penicillin and streptomycin, 1% nonessential amino acids, and 1% glutamine. The compounds were diluted in the medium at concentrations ranging from 0.78 to 100 μM plus 1% DMSO and added to the cells 48 hours after plating, with each concentration tested in triplicate. Cells were incubated with the compound for 72 hours and cytotoxicity was measured using a mitochondrial metabolic assay with MTS (Promega). The data were transformed to log[inhibitor] and fit to a 4-variable slope curve using GraphPad Prism (v6, www.graphpad.com).
Three days later, the MTS reagent was added for 90 minutes prior to terminating the incubation period and reading the OD480.

The subject of data set [2] is C. neoformans var grubii, KN99. Put plainly: Inhibition of C. neoformans growth, limiting dilution assay (MIC). It counts as cell-based. As to conditions: for MIC80: KN99α, minimal concentration inhibiting 80% of growth relative to vehicle; for activity against C. neoformans (in words): MIC assay. Here is the method: Strains and media. All inhibition assays were performed with C. neoformans var grubii, KN99 (serotype A, MATα; kindly provided by Jennifer Lodge). Two clinical strains of C. neoformans var grubii, serotype A, were kindly provided by Tamara Doering and Andre Spec. […] Each assay was done in triplicate and all values are the average of two or more independent assays. The data are presented as the average cell density as a percent of DMSO-only treated cells. […] However, these conditions are unlike conditions encountered by C. neoformans in mammalian infections, where nutrients are limited, and the pH and temperature are higher than in YPD media. The cryptococcal stress response to low glucose and high pH and temperature may alter its susceptibility to the inhibitors. It is also possible that the enzymes targeted by the inhibitors may render the cell temperature sensitive when inhibited. To better mimic growth in mammals, growth was tested without shaking in nutrient-limited media at 35° C. […] However, as the nutrient-limited media and higher temperature is more similar to mammalian cell growth conditions, these conditions were used for all further assays. […] All values were measured at least two times in independent experiments and the average MIC is reported.

[3] abbreviates: CC50, HepDES19 cells, 72 hours, MTS.
[4] abbreviates: Cryptococcus neoformans, YNB-02+1% DMSO, 35° C., 48 hours.

Converted amounts (≈) assume the structure as drawn.

`Cc1cc(O)c(=O)c(O)cc1-c1ccc(C(F)(F)F)cc1` [Compound 145] returned a CC50 at 72 h in data set [1] (setting [3]) of 11 µM. The compound also yielded an MIC80 in data set [2] (setting [4]) of 15 µM (≈ 4.44 µg/mL).
The like results for `Cc1cc(O)c(=O)c(O)cc1-c1ccc(Br)cc1` [Compound 114] were, in that order, 18.6 µM and 11 µM (≈ 3.38 µg/mL).
Compound `Cc1cc(O)c(=O)c(O)cc1C(=O)O` [Compound 319, 4,6-dihydroxy-2-methyl-5-oxocyclohepta-1,3,6-triene-1-carboxylic Acid] registered a CC50 at 72 h in data set [1] (setting [3]) greater than 100 µM. In data set [2] (setting [4]), this compound had an MIC80 of 50 µM (≈ 9.81 µg/mL) and an MIC of no less than 50 µM.
`Cc1cc(O)c(=O)c(O)cc1-c1cccc2ccccc12` [Compound 146] registered a CC50 at 72 h in data set [1] (setting [3]) of 20 µM. In data set [2] (setting [4]), this compound gave an MIC80 of 20 µM (≈ 5.57 µg/mL).
Regarding `Cc1cc(O)c(=O)c(O)cc1C(=O)c1ccco1` [Compound 309, 4-(furan-2-carbonyl)-2,7-dihydroxy-5-methylcyclohepta-2,4,6-trien-1-one], in data set [1] (setting [3]), the CC50 at 72 h amounted to 35 µM. The compound also showed an MIC80 in data set [2] (setting [4]) of 24 µM (≈ 5.91 µg/mL).
In the same order, the values of `CC(C)=CCc1ccc(=O)c(O)cc1C(C)C` [Compound 49, Nootkatin] are 18.5 µM and 18 µM (≈ 4.18 µg/mL).
In the case of `O=c1c(O)ccc(-c2ccco2)cc1O` [Compound 265, 4-(furan-2-yl)-2,7-dihydroxycyclohepta-2,4,6-trien-1-one], the MIC in data set [2] (setting [4]) is no more than 15 µM.
The compound `Cc1cc(O)c(=O)c(O)cc1C(=O)c1ccc(-c2ccccc2)cc1` [Compound 118] registered a CC50 at 72 h in data set [1] (setting [3]) of 17.5 µM. Further, in data set [2] (setting [4]), the MIC80 turned out to be 18 µM (≈ 5.98 µg/mL).
In the same order, the values of `Cc1cc(O)c(=O)c(O)cc1C(=O)c1ccc([N+](=O)[O-])cc1` [Compound 313, 2,7-dihydroxy-4-methyl-5-(4-nitrobenzoyl)cyclohepta-2,4,6-trien-1-one] are 46 µM and 24 µM (≈ 7.23 µg/mL).
The like results for `Cc1cc(O)c(=O)c(O)cc1-c1ccccc1` [Compound 113] were, in that order, 37.5 µM and 24 µM (≈ 5.48 µg/mL).
Consider `Cc1ccc(O)c(=O)c(O)c1` [Compound 210], for which the CC50 at 72 h in data set [1] (setting [3]) came out at 71 µM. In data set [2] (setting [4]), this compound registered an MIC80 of 15 µM (≈ 2.28 µg/mL) and an MIC of no more than 15 µM.
In turn, `Cc1ccccc1C(=O)Oc1cccccc1=O` [Compound 281] came in with a CC50 at 72 h in data set [1] (setting [3]) of 100 µM. The compound further came in with an MIC80 in data set [2] (setting [4]) of 50 µM (≈ 12 µg/mL).
The compound `COc1ccc(C(=O)c2cc(O)c(=O)c(O)cc2C)cc1` [Compound 312, 4-(4-methoxybenzoyl)-2,7-dihydroxy-5-methylcyclohepta-2,4,6-trien-1-one] displayed a cytotoxic concentration (CC50) at 72 h in data set [1] (setting [3]) of 18 µM. In data set [2] (setting [4]), this compound returned an MIC80 of 18 µM (≈ 5.15 µg/mL).
For `O=C(Sc1cccccc1=O)c1ccccc1` [Compound 364], the CC50 at 72 h in data set [1] (CC50, Table 3, similar methods to Table 2) was found to be 46 µM. The MIC in data set [2] (Cryptococcus neoformans, Table 3, similar methods to Table 2) came to 0.2 µM (≈ 0.0485 µg/mL).
Regarding `COC(=O)c1cc(O)c(=O)c(OC)cc1C` [Compound 273], the midpoint of cytotoxicity in data set [1] (setting [3]), the CC50 at 72 h, lay at 100 µM. The MIC80 in data set [2] (setting [4]) amounted to 50 µM (≈ 11.2 µg/mL). The “activity against C. neoformans (in words)” value in data set [2] was “no activity”.
Regarding `CC(=O)NC(CCc1ccc(Cl)c(Cl)c1)c1cccc(O)c(=O)c1` (stereo not drawn) [Compound 55], the CC50 at 72 h amounted to 4.3 µM in data set [1] (setting [3]) and 4 µM in data set [1] (CC50, HepDES19, MTS). Besides, in data set [2] (setting [4]), the MIC80 was 6 µM (≈ 2.2 µg/mL).
In data set [1] (setting [3]), `O=c1c(O)ccccc1O` [Compound 172, 7-Hydroxytropolone] had a CC50 at 72 h of 100 µM. In data set [2] (setting [4]), the MIC80 was determined as 24 µM (≈ 3.31 µg/mL) and 24 µM (≈ 3.31 µg/mL) was the least that counted as inhibitory (MIC). Moreover, the “activity against C. neoformans (in words)” value in data set [2] is “little activity”.
`C=C(C)C1CCc2c(c(C)cc(O)c(=O)c2O)C1` (stereo not drawn) [Compound 56, Manicol] came in with a CC50 at 72 h in data set [1] (setting [3]) of 27 µM. Also, the MIC80 in data set [2] (setting [4]) was 50 µM (≈ 12.3 µg/mL).
Consider `COC(=O)c1c(CCl)cc(O)c(=O)c(O)c1C(=O)OC` [Compound 107], for which, in data set [1] (setting [3]), the CC50 at 72 h is 85.5 µM. The compound also yielded an MIC80 in data set [2] (setting [4]) of 50 µM (≈ 15.1 µg/mL).
As for `Cc1cc(O)c(=O)c(O)cc1C(=O)C(C)C` [Compound 143], the CC50 at 72 h in data set [1] (setting [3]) is greater than 100 µM. Also, in data set [2] (setting [4]), the MIC80 was determined as 50 µM (≈ 11.1 µg/mL) and the MIC was no less than 50 µM.
On to `Cc1cc(O)c(=O)c(O)cc1-c1ccc(Cl)cc1` [Compound 144], for which the MIC80 in data set [2] (setting [4]) turned out to be 50 µM (≈ 13.1 µg/mL). This lies in the double-digit micromolar range.
Turning to `O=c1cccccc1Cl` [Compound 57, 2-chlorotropone], the MIC80 in data set [2] (YNB-02+1% DMSO, 35° C., 48 hours) is 50 µM (≈ 7.03 µg/mL).
